# Source: patent US20180160679A1, “PROCESS FOR TREATING PERENNIAL PLANT WOOD DISEASES” (priority 2015, published 2018)
# Legend:
# [1] = system: Formitiporia mediterranea (F2010-1); assay: Mycelial growth on malt-agar medium with fungicide; assay type: cell-based, Fomitoporia mediterranea; settings: for concentration at which mycelial growth is inhibited completely: Example 6; for fungicide (lethal) activity: at the concentrations tested
# Experimental: (§1) Formulation 3 was used in this experiment and was compared with two formulations 5 and 6, is devoid of one of the two active ingredients but of identical composition (the quantity of active ingredient omitted is replaced with water).
# (§2) The fungi on which formulations 3, 5 and 6 were tested are Diplodia seriata (F98-01), Neofusicoccum parvum (NpSV), Eutypa lata (St309) and Formitiporia mediterranea (F2010-1).
# (§3) The culture medium is a malt-agar medium (15 g of malt and 20 g of agar per litre of deionized water, sterilized at 120° C. for 20 minutes).
# (§4) The medium containing the fungicides is prepared by diluting the formulation under investigation in deionized water, which is added to the culture medium. The mixture is then homogenized and distributed in Petri dishes with a diameter of 90 mm.
# (§5) The final concentrations of each active ingredient in the medium are as follows: 0.0005, 0.005, 0.05, 0.5, 5, 50 and 500 mg/L.
# (§6) Discs with a diameter of 6 mm, cut out with a punch, are placed in each dish in sterile conditions. Three repetitions are carried out for each test. The Petri dishes are incubated at 25° C. for a time necessary for the fungus to develop as far as 1 or 2 cm from the edges of a Petri dish.
# (§7) The percentage mycelial growth is evaluated relative to a control placed under the same conditions for each concentration of fungicide, by the following equation: […]
# (§8) The value of the concentration of the active ingredients required for inhibiting mycelial growth at 50% (IC50) or at 90% (IC90) is calculated from the regression straight line of the percentage efficacy as a function of the logarithm of the concentration of the fungicide.
# (§9) The value of the concentration of the fungicide that is lethal for the fungus is obtained according to the following methodology; the mycelial implants that have not developed on the culture medium with fungicide are transferred to a malt-agar culture medium, without fungicide. The Petri dishes are then incubated at ambient temperature. Failure of the mycelial implant to take is noted.
# (§10) The interactions between the fungicides in composition 3 are investigated by Wadley's method. IC50 and IC90 can be determined for each fungicide and for the fungicide combination from the curves plotted for each active ingredient used alone or for the combination.
# (§11) IC90 and the theoretical IC90 for the combination is then calculated using the following equation:
# (§12) The type and the level of the interaction F are then calculated by dividing the theoretical IC value by the experimental IC observed for the combination of fungicides (F=theoretical IC/experimental IC).
# (§13) The interactions are defined thus: • Additivity: F=1, • Synergy: F>1, • Antagonism: F<1.
# (§14) The efficacy of tetraconazole, cyproconazole alone or in combination with chlorothalonil or metiram zinc on mycelial growth was evaluated under the same conditions as in Example 4.
# (§15) The efficacy of tebuconazole in combination with another […] antifungal, metiram zinc, was also evaluated.
# [2] = system: Phaeocremonium aleophilum; assay: Mycelial growth on malt-agar medium with fungicide (Example 6); assay type: cell-based
# Experimental: as §3, §4, §6, §7, §8
# (§16) The value of the concentration of the fungicide that is lethal for the fungus is obtained according to the following methodology; the mycelial implants that have not developed on the culture medium with fungicide are transferred to a malt-agar culture medium, without fungicide. The Petri dishes are then incubated at ambient temperature. Failure of the mycelial implant to take is noted. […]
# as §14, §15
# [3] = system: Phaeomoniella chlamydospora; assay: as above; assay type: cell-based
# Experimental: as §3, §4, §6, §7, §8, §16, §14, §15
# [4] = system: Diplodia seriata (F98-01); assay: Mycelial growth on malt-agar medium with fungicide; assay type: cell-based
# Experimental: as §1, §2, §3, §4, §5, §6, §7, §8, §9, §10, §11, §12, §13, §14, §15
# Eutypa lata (St309) = assay: Mycelial growth on malt-agar medium with fungicide; assay type: cell-based
# Experimental: as §1, §2, §3, §4, §5, §6, §7, §8, §9, §10, §11, §12, §13, §14, §15
# [5] = system: Neofusicoccum parvum (NpSV); assay: Mycelial growth on malt-agar medium with fungicide; assay type: cell-based
# Experimental: as §1, §2, §3, §4, §5, §6, §7, §8, §9, §10, §11, §12, §13, §14, §15
# Eutypa lata = assay: Germination of the spores on malt-agar medium with fungicide; assay type: cell-based
# Experimental: (§17) Formulation 3 was used in this experiment and was compared with two formulations 5 and 6, devoid of one of the two active ingredients but of identical composition (the quantity of active ingredient omitted is replaced with water).
# (§18) The fungi on which formulations 3, 5 and 6 were tested are Phaemoniella chlamydospora (81pep), Phaeoacremonium aleophilum (LR 23), Diplodia seriata (F98-01), Neofusicoccum parvum (NpSV) and Eutypa lata.
# (§19) The fungi are transferred to a malt-agar medium (15 g of malt and 20 g of agar per litre of deionized water, sterilized at 120° C. for 20 minutes) in a Petri dish for multiplication.
# The ascospores of Eutypa lata are obtained from perithecia situated on vine plants that have died from Eutypiosis. The perithecia are decapitated superficially, isolated one by one and soaked in sterile water for approximately 2 hours. The concentration of ascospores is then adjusted to 100-200 conidia per μl.
# The culture medium is a malt-agar medium (15 g of malt and 20 g of agar per litre of deionized water, sterilized at 120° C. for 20 minutes). […]
# (§20) The percentage germination of the spores is evaluated relative to a control placed under the same conditions. […]
# (§21) For each Petri dish, 200 spores are counted and the percentage of spores germinated is calculated.
# (§22) For each concentration of fungicide, the percentage efficacy of the active ingredient is determined by the following equation: […]
# [6] = system: Phaemoniella chlamydospora (81pep); assay: as above; assay type: cell-based; settings: at 0.05 mg/1
# Experimental: as §17, §18, §19
# (§23) The conidia of Phaemoniella chlamydospora and Phaeoacremonium aleophilum are obtained from cultures of these fungi. The conidia are obtained by rinsing the colony of fungi with a few millilitres of sterile deionized water.
# (§24) The suspension of conidia in deionized water is then adjusted to 100-200 conidia per μl.
# as §3, §4, §5
# (§25) 100 μl of a previously homogenized suspension of spores is deposited and spread over the surface of the culture medium.
# (§26) Two repetitions are carried out for each test.
# (§27) The percentage germination of the spores is evaluated relative to a control placed under the same conditions.
# (§28) Two Petri dishes are incubated at 25° C. for a time required for the spores of the control dish to have germinated between 90 and 100%.
# as §21, §22
# [7] = system: Phaeoacremonium aleophilum (LR 23); assay: as above; assay type: cell-based
# Experimental: as §17, §18, §19, §23, §24, §3, §4, §5, §25, §26, §27, §28, §21, §22
# Phytophthora cactorum = assay: Growth inhibition by laser nephelometry in 96-well microplates; assay type: cell-based; settings: nephelometry for 60 h
# Experimental: (§29) For multicellular organisms such as fungi, the nephelometry method is used on sporulating strains (Joubert et al., Laser nephelometry applied in an automated microplate system to study filamentous fungus growth, Biotechniques 48: 399-404, 2010).
# (§30) The strains are multiplied on suitable agar media in an oven at 20° C., for 8 days before their use, so as to be in their exponential growth phase. The fungal suspension is prepared extemporaneously at a concentration of […] for Pc and […] for Ch.
# (§31) 100 μl of the suspension is used for the tests.
# (§32) The tests are carried out in 96-well microplates. Doses of 0 ppm, 0.1 ppm, 0.3 ppm, 1 ppm, 3 ppm, 10 ppm, 30 ppm, 100 ppm, 300 ppm, 1000 ppm and 3000 ppm (final concentration of the substance) will be tested per product.
# (§33) Three technical repetitions are carried out per modality (target species/formulation).
# (§34) Controls are added per target pathogenic agent: one positive growth control and the products alone at the highest doses.
# (§35) Nephelometry measurements (RNU) are carried out for 60 h, every 30 minutes and the growth values are measured to study the growth inhibition effect relative to the fungal controls.
# [8] = system: Neonectria galligena (Cylindrocarpon heteronema); assay: as above; assay type: cell-based
# Experimental: as §29, §30, §31, §32, §33, §34, §35
# [9] = system: Neofusicoccum parvum (NpSV); assay: Germination of the spores on malt-agar medium with fungicide; assay type: cell-based; settings: at the concentration tested
# Experimental: as §17, §18, §19
# The conidia of Neofusicoccum parvum are obtained from pycnidia that have developed on fragments of grapevines shoots.
# as §3
# The medium containing the fungicides is prepared by diluting the formulation under investigation in deionized water, which is added to the culture medium. […]
# as §20, §21, §22
Compound,concentration at which mycelial growth is inhibited completely [1] [mg/L],fungicide (lethal) activity [1],concentration at which mycelial growth is inhibited completely [2] [mg/L],concentration at which the substance is fungicidal (lethal dose) [2] [mg/L],concentration at which mycelial growth is inhibited completely [3] [mg/L],concentration at which the substance is fungicidal [3] [mg/L],concentration from which mycelial growth is inhibited completely (Eutypa lata (St309); Example 6) [mg/L],lethal dose (Eutypa lata (St309); Example 6) [mg/L],concentration at which mycelial growth is inhibited completely ([5]; Example 6) [mg/L],concentration at which mycelial growth is inhibited completely ([4]; Example 6) [mg/L],also measured
CC(C1CC1)C(O)(Cn1cncn1)c1ccc(Cl)cc1 (centres unmarked) [cyproconazole],500,fungicidal,50,100,50,100,≥ 1,10,500,,activity on mycelial growth ([4]; Example 6): low activity
CC(C)(C)C(O)(CCc1ccc(Cl)cc1)Cn1cncn1 (centres unmarked) [tebuconazole],,None of the concentrations tested is lethal,50,100,50,100,,,,,"concentration from which mycelial growth is inhibited completely ([1]; Example 5): ≥ 0.5 mg/L; IC50 ([1]; Example 5, mycelial growth, unit not given (concentrations tested in mg/L)): 3 ng/mL; concentration that inhibits germination of the spores (Eutypa lata): 50 mg/1; inhibition of germination of the spores [6]: inhibit germination of the spores completely; concentration from which elongation of the spores is inhibited [7]: ≥ 5 mg/L; inhibition of germination of the spores ([7]; at the concentrations tested (0.0005 to 500 mg/L)): does not prevent germination of the spores; 50% inhibitory concentration (IC50) (Phytophthora cactorum): around 200 ppm; 90% inhibitory concentration (IC90) (Phytophthora cactorum): < 1000 ppm; lethal dose [8]: 1000 ppm; IC50 ([8]; growth, nephelometry for 60 h): around 230 ppm; IC90 ([8]; growth, nephelometry for 60 h): around 800 ppm; inhibition of germination of the spores [9]: does not inhibit germination of the spores; IC50 ([4]; Diplodia seriata, Example 5, mycelial growth, unit not given (concentrations tested in mg/L)): 6 ng/mL; concentration from which mycelial growth is inhibited completely ([4]; Example 5): ≥ 50 mg/L; lethal concentration ([4]; Example 5): 500 mg/L; concentration from which mycelial growth is inhibited completely (Eutypa lata (St309); Example 5): ≥ 0.5 mg/L; lethal concentration (Eutypa lata (St309); Example 5, implants transferred to medium without fungicide): 500 mg/L; concentration from which mycelial growth is inhibited completely ([5]; Example 5): ≥ 0.5 mg/L; lethal concentration ([5]; Example 5): 500 mg/L; IC50 ([5]; Neofusicoccum parvum, Example 5, mycelial growth, unit not given (concentrations tested in mg/L)): 13 ng/mL"
FC(F)C(F)(F)OCC(Cn1cncn1)c1ccc(Cl)cc1Cl (centres unmarked) [tetraconazole],10,fungicidal,50,100,50,100,≥ 5,50,500,500,
metiram zinc,500,fungicidal,100,,100,,,,,500,"activity on mycelial growth (Eutypa lata (St309); Example 6): low activity; activity on mycelial growth (Eutypa lata (St309); Example 6, listed as Metiram zinc): do not inhibit the mycelial growth of Eutypa lata completely; activity on mycelial growth ([5]; Example 6): moderate activity"
